Laboratory results from paper PMC7044277 (Nature Communications, 2020).
Several values for one entry are separate records, joined by “and”; a condition that tells them apart may be missing. Equal values may be shown once.

How the values were obtained:
Format in all cases: cell-based
[1] = target: T1, 320 non-olfactory GPCRs (Homo sapiens, UniProt P49286); conditions: receptor MTNR1B; replicate values, Fig_4g
T1 construct: expressed in transfected cells; host or cells: HTLA cells

[2] = target: T2, 320 non-olfactory GPCRs (Homo sapiens, UniProt P50052)
T2 construct: expressed in transfected cells; host or cells: HTLA cells
T2 sequence (P50052 whole entry): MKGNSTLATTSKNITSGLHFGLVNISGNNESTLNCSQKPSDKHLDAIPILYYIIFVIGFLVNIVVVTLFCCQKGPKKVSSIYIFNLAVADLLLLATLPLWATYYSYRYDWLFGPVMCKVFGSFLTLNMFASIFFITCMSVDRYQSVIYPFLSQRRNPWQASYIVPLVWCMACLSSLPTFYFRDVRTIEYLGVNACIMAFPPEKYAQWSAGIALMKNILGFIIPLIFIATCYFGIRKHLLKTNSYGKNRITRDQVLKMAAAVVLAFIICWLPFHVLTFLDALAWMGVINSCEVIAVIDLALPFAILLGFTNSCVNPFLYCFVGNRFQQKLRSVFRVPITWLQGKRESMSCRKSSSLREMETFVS

[3] = target: T3, 320 non-olfactory GPCRs (Homo sapiens, UniProt Q9GZQ6); conditions: receptor NPFF1; replicate values, Fig_4g
T3 construct: expressed in transfected cells; host or cells: HTLA cells
T3 sequence (Q9GZQ6 whole entry): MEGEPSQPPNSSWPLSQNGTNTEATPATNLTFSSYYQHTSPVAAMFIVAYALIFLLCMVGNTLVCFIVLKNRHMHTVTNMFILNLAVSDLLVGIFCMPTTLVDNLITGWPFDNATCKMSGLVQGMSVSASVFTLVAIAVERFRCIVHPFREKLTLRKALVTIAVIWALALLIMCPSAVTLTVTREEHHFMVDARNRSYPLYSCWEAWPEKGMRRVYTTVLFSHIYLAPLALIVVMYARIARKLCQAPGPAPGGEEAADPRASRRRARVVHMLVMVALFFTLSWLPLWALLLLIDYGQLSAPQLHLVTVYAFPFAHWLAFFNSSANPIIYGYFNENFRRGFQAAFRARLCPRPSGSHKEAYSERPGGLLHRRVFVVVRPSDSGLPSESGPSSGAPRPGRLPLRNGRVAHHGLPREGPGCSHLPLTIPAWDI

[4] = target: T4, 320 non-olfactory GPCRs (Homo sapiens, UniProt P0DMS8)
T4 construct: expressed in transfected cells; host or cells: HTLA cells
T4 sequence (P0DMS8 whole entry): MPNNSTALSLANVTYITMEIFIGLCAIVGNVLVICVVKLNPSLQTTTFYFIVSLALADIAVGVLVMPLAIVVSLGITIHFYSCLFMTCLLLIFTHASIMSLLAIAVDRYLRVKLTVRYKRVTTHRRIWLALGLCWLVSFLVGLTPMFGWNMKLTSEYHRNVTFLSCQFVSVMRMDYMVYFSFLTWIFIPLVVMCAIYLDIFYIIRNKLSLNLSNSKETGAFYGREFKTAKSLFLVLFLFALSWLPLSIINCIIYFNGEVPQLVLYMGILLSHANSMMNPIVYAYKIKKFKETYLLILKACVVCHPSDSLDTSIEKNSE
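For Fold of Basal in this document: compound tested at 1 µM final concentration.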
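For GPCRome agonism screen response in this document: fold over basal response of each receptor without drug.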

T1 sequence (P49286 whole entry): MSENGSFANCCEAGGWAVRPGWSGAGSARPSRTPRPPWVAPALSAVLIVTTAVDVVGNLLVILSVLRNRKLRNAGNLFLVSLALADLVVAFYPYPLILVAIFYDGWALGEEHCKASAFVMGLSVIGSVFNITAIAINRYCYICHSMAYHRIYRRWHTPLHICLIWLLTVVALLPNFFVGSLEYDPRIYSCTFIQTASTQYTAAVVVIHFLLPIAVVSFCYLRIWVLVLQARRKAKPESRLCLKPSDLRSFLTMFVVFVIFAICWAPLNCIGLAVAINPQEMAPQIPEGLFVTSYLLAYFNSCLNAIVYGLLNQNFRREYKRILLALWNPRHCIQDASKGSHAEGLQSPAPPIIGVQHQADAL

For CCOc1cccc2cc(C(C)NCC3(O)CCCCC3)oc12 (stereo not shown) [O4LE6], the “GPCRome agonism screen response” value [1] was 1.769 and 0.5073 and 1.312 and 1.409, the “Fold of Basal” value [2] was 1.003 and 1.182 and 1.322 and 1.107 and the “GPCRome agonism screen response” value [3] was 1.802 and 0.79 and 0.7669 and 0.6228. For the same compound, the “Fold of Basal” value [4] was 1.06 and 1.364 and 1.085 and 1.781.
